These results are taken from patent publication US5902822A, “7-methylthiooxomethyl and 7-methylthiodioxomethyl paclitaxels” (Bristol-Myers Squibb Company, priority 1998, dated 1999).

For one assay, the system named is M109 lung carcinoma. Kind of assay: Mice M109 model, advanced distal site antitumor IV testing. The conditions noted are these: for Maximum Effect T-C days (delay of median time to grow tumor to 1 gm): intravenous, once daily on days 4-8 post-tumor implant, sc tumor. It counts as in vivo, Balb/c×DBA 2 F1 (CDF1) hybrid mice. How it is done:
Mice M109 Model (In-Vivo Activity)
Balb/c×DBA 2 F1 (CDF1) hybrid mice were implanted subcutaneously (sc) with 0.1 mL of a 2% (w/v) brei of M109 lung carcinoma (as described by William Rose in Evaluation of Madison 109 Lung Carcinoma as a Model for Screening Antitumor Drugs, Cancer Treatment Reports, 65, No. 3-4 (1981)).
The test compounds and reference drug, paclitaxel, were administered intravenously to groups of mice; each group received a compound at a different dose level, and three or four different dose levels were evaluated per compound. Mice were treated with compounds intravenously, once daily, on days 4, 5, 6, 7, and 8 post-tumor implant. Mice were followed daily for survival until their death or approximately 60-90 days post-tumor implant whichever occurred first. One group of mice per experiment remained untreated and served as the primary control group; a secondary control group was typically included and received 1/10th the tumor inocula of all the other groups of mice (i.e., 0.1 ml of a 0.2% (w/v) brei of M109 lung carcinoma). Tumors were also measured once or, more often, twice weekly to estimate the tumor weight according to the published procedure (ibid).
Median survival times of compound-treated (T) mice were compared to the median survival time of the control (C) mice. The ratio of the two values for each compound-treated group of mice was multiplied by 100 and expressed as a percentage (i.e. % T/C) in the following Table II for representative compounds. Additionally, the difference between the median time for treated groups and that for the control group to grow tumor to 1 gm, expressed as T-C values in days, is also shown in the following table. The greater the T-C value, the greater the delay in primary tumor growth. […] When the difference in the time to grow 1 gm tumors in both primary and secondary control groups is greater than 4 days, that difference becomes the criterion for activity.
Advanced Distal Site Antitumor IV Testing of Paclitaxel Derivatives

The test system of assay [1] is HCT116 human colon carcinoma cells. Kind of assay: XTT cytotoxicity assay in HCT116 human colon carcinoma cells. Conditions: read-out: Cytotoxicity Assay IC50 against HCT 116 Human colon tumor cell line. It is filed as cell-based. How it is done: Cytotoxicity was assessed in HCT116 human colon carcinoma cells by XTT (2,3-bis(2-methoxy-4-nitro-5-sulfophenyl)-5-[(phenylamino)carbonyl]-2H-tetrazolium hydroxide assay (1). Cells were plated at 4000 cells/well in 96 well microtiter plates and 24 hrs later drugs were added and serial diluted. The cells were incubated at 37° C. for 72 hrs at which time the tetrazolium dye, XTT, containing phenazine methosulfate was added. A dehydrogenase enzyme in live cells reduces the XTT to a form that absorbs light at 450 nm which can be quantitated spectrophotometrically. The greater the absorbance the greater the number of live cells. The results are expressed as an IC50 which is the drug concentration required to inhibit cell proliferation (i.e. absorbance at 450 nm) to 50% of that of untreated control cells.
The IC50 values for compounds evaluated in this assay are contained in Table I.
A general note: Tetrazolium assays rely on reduction of a dye to a coloured formazan, in cell work by metabolically active cells.

For assay [2] the following is noted: cited from earlier work.
Setting [3] is: HCT-116, XTT, 72 hrs incubation at 37° C.

Where two headings read alike, the source gives them in different places.

In the case of `CC(=O)O[C@H]1C(=O)[C@]2(C)[C@@H](OC[S+](C)[O-])C[C@H]3OC[C@@]3(OC(C)=O)[C@H]2[C@H](OC(=O)c2ccccc2)[C@]2(O)C[C@H](OC(=O)[C@H](O)[C@@H](NC(=O)c3ccccc3)c3ccccc3)C(C)=C1C2(C)C` (some centres unmarked), the “Maximum Effect % T/C (median survival time, treated vs control)” value in the assay on M109 lung carcinoma (15 mg/kg) is 141%; in the assay on M109 lung carcinoma (25 mg/kg) it was 129%. For the same compound, the figures for the “Maximum Effect T-C days (delay of median time to grow tumor to 1 gm)” value with M109 lung carcinoma (Opt. dose 15 mg/kg/inj) and with M109 lung carcinoma (Opt. dose 25 mg/kg/inj) were 9.0 days and 10.0 days, respectively.

For orientation: IC50 means the concentration that inhibits the measured activity by half. As for `CC(=O)O[C@H]1C(=O)[C@]2(C)[C@@H](OC[S+](C)[O-])C[C@H]3OC[C@@]3(OC(C)=O)[C@H]2[C@H](OC(=O)c2ccccc2)[C@]2(O)C[C@H](OC(=O)[C@H](O)[C@@H](NC(=O)c3ccccc3)c3ccccc3)C(C)=C1C2(C)C` (some centres unmarked) [2 & 3 (Example 1)], the IC50 in assay [1] (HCT-116, 72 h) came out at 13 nM.

For the compound `CC(=O)O[C@H]1C(=O)[C@]2(C)[C@@H](OCS(C)(=O)=O)C[C@H]3OC[C@@]3(OC(C)=O)[C@H]2[C@H](OC(=O)c2ccccc2)[C@]2(O)C[C@H](OC(=O)[C@H](O)[C@@H](NC(=O)c3ccccc3)c3ccccc3)C(C)=C1C2(C)C` [4 (Example 2)], the IC50 in assay [1] (setting [3]) came to 2.8 nM.

Take `CC(=O)O[C@H]1C(=O)[C@@]2(C)[C@H]([C@H](OC(=O)c3ccccc3)[C@]3(O)C[C@H](OC(=O)[C@H](O)[C@@H](NC(=O)c4ccccc4)c4ccccc4)C(C)=C1C3(C)C)[C@]1(OC(C)=O)CO[C@@H]1C[C@@H]2O` [paclitaxel]: the “antitumor activity in in vivo animal models, in words” value in assay [2] was “excellent antitumor activity”. Also, the IC50 in assay [1] (setting [3]) lay within 4.9 to 5.9 nM.
